The values below come from PubChem BioAssay AID1259407 (Chemical Carcinogenesis Research Information System (CCRIS), 2018).

For this series, the system named is CCRIS mutagenicity, Ames/micronucleus/aberration tests. In words: CCRIS mutagenicity studies.

Active and inactive are the calls of the source. No rule for the calls is given here.

As for `Nc1ccc(Br)cc1`, the mutagenic call (End Point: IN VITRO MICRONUCLEUS, Test System: CHL/IU CELLS, Metabolic Activation: RAT, LIVER, S-9, PHENOBARBITAL AND 5,6-BENZOFLAVONE) was “active; positive”; the mutagenic call (Test System: AMES SALMONELLA TYPHIMURIUM, Strain/Indicator: TA97, Metabolic Activation: HAMSTER, LIVER, S-9, AROCLOR 1254 (10%), Method: PREINCUBATION) is “inactive; negative”; the mutagenic call (Test System: AMES SALMONELLA TYPHIMURIUM, Strain/Indicator: TA97, Metabolic Activation: HAMSTER, LIVER, S-9, AROCLOR 1254 (30%), Method: PREINCUBATION) was “inactive; negative”; the mutagenic call (Test System: AMES SALMONELLA TYPHIMURIUM, Strain/Indicator: TA97, Metabolic Activation: NONE, Method: PREINCUBATION) was “inactive; negative”; the mutagenic call (Test System: AMES SALMONELLA TYPHIMURIUM, Strain/Indicator: TA97, Metabolic Activation: RAT, LIVER, S-9, AROCLOR 1254 (10%), Method: PREINCUBATION) was “inactive; negative”; the mutagenic call (Test System: AMES SALMONELLA TYPHIMURIUM, Strain/Indicator: TA97, Metabolic Activation: RAT, LIVER, S-9, AROCLOR 1254 (30%), Method: PREINCUBATION) is “inactive; negative”. Moreover, the mutagenic call is, setting by setting: (Test System: AMES SALMONELLA TYPHIMURIUM, Strain/Indicator: TA98, Metabolic Activation: HAMSTER, LIVER, S-9, AROCLOR 1254 (10%), Method: PREINCUBATION) “inactive; negative”; (Test System: AMES SALMONELLA TYPHIMURIUM, Strain/Indicator: TA98, Metabolic Activation: HAMSTER, LIVER, S-9, AROCLOR 1254 (30%), Method: PREINCUBATION) “inactive; negative”; (Test System: AMES SALMONELLA TYPHIMURIUM, Strain/Indicator: TA98, Metabolic Activation: NONE, Method: PREINCUBATION) “inactive; negative”; (Test System: AMES SALMONELLA TYPHIMURIUM, Strain/Indicator: TA98, Metabolic Activation: RAT, LIVER, S-9, AROCLOR 1254 (10%), Method: PREINCUBATION) “inactive; negative”; (Test System: AMES SALMONELLA TYPHIMURIUM, Strain/Indicator: TA98, Metabolic Activation: RAT, LIVER, S-9, AROCLOR 1254 (30%), Method: PREINCUBATION) “inactive; negative”; (Test System: AMES SALMONELLA TYPHIMURIUM, Strain/Indicator: TA100, Metabolic Activation: HAMSTER, LIVER, S-9, AROCLOR 1254 (10%), Method: PREINCUBATION) “inactive; negative”. The mutagenic call by setting is: (Test System: AMES SALMONELLA TYPHIMURIUM, Strain/Indicator: TA100, Metabolic Activation: HAMSTER, LIVER, S-9, AROCLOR 1254 (30%), Method: PREINCUBATION) “inactive; negative”; (Test System: AMES SALMONELLA TYPHIMURIUM, Strain/Indicator: TA100, Metabolic Activation: NONE, Method: PREINCUBATION) “inactive; negative”; (Test System: AMES SALMONELLA TYPHIMURIUM, Strain/Indicator: TA100, Metabolic Activation: RAT, LIVER, S-9, AROCLOR 1254 (10%), Method: PREINCUBATION) “inactive; negative”; (Test System: AMES SALMONELLA TYPHIMURIUM, Strain/Indicator: TA100, Metabolic Activation: RAT, LIVER, S-9, AROCLOR 1254 (30%), Method: PREINCUBATION) “inactive; negative”; (Test System: AMES SALMONELLA TYPHIMURIUM, Strain/Indicator: TA1535, Metabolic Activation: HAMSTER, LIVER, S-9, AROCLOR 1254 (10%), Method: PREINCUBATION) “inactive; negative”; (Test System: AMES SALMONELLA TYPHIMURIUM, Strain/Indicator: TA1535, Metabolic Activation: HAMSTER, LIVER, S-9, AROCLOR 1254 (30%), Method: PREINCUBATION) “inactive; negative”. For the same molecule, the mutagenic call was “inactive; negative” (Test System: AMES SALMONELLA TYPHIMURIUM, Strain/Indicator: TA1535, Metabolic Activation: NONE, Method: PREINCUBATION); “inactive; negative” (Test System: AMES SALMONELLA TYPHIMURIUM, Strain/Indicator: TA1535, Metabolic Activation: RAT, LIVER, S-9, AROCLOR 1254 (10%), Method: PREINCUBATION); “inactive; negative” (Test System: AMES SALMONELLA TYPHIMURIUM, Strain/Indicator: TA1535, Metabolic Activation: RAT, LIVER, S-9, AROCLOR 1254 (30%), Method: PREINCUBATION); “inactive; negative” (Test System: E. COLI, Strain/Indicator: WP2 UVRA, Metabolic Activation: NONE, Method: FLUCTUATION TEST).

In the case of `c1cc2cccc3c4cccc5cccc(c(c1)c23)c54`, the mutagenic call (Test System: AMES SALMONELLA TYPHIMURIUM, Strain/Indicator: TA97, Metabolic Activation: NONE, Method: STANDARD PLATE) was “inactive; negative”; the mutagenic call (Test System: AMES SALMONELLA TYPHIMURIUM, Strain/Indicator: TA97, Metabolic Activation: RAT, LIVER, S-9, PCB, Method: STANDARD PLATE) was “active; positive”; the mutagenic call (Test System: AMES SALMONELLA TYPHIMURIUM, Strain/Indicator: TA97A, Metabolic Activation: RAT, LIVER, S-9, AROCLOR 1254, Method: STANDARD PLATE) was “active; positive”; the mutagenic call (Test System: AMES SALMONELLA TYPHIMURIUM, Strain/Indicator: TA98, Metabolic Activation: NONE, Method: STANDARD PLATE) is “inactive; negative”; the mutagenic call (Test System: AMES SALMONELLA TYPHIMURIUM, Strain/Indicator: TA98, Metabolic Activation: RAT, LIVER, S-9, AROCLOR 1254 (20 OR 50 µL S-9), Method: STANDARD PLATE) is “active; positive”; the mutagenic call (Test System: AMES SALMONELLA TYPHIMURIUM, Strain/Indicator: TA98, Metabolic Activation: RAT, LIVER, S-9, PCB, Method: STANDARD PLATE) is “active; positive”. The mutagenic call by setting is: (Test System: AMES SALMONELLA TYPHIMURIUM, Strain/Indicator: TA100, Metabolic Activation: NONE, Method: STANDARD PLATE) “inactive; negative”; (Test System: AMES SALMONELLA TYPHIMURIUM, Strain/Indicator: TA100, Metabolic Activation: RAT, LIVER, S-9, AROCLOR 1254 (50 µL S-9), Method: STANDARD PLATE) “active; positive”; (Test System: AMES SALMONELLA TYPHIMURIUM, Strain/Indicator: TA100, Metabolic Activation: RAT, LIVER, S-9, AROCLOR 1254, Method: STANDARD PLATE) “active; positive”; (Test System: AMES SALMONELLA TYPHIMURIUM, Strain/Indicator: TA100, Metabolic Activation: RAT, LIVER, S-9, PCB, Method: STANDARD PLATE) “active; positive”; (Test System: AMES SALMONELLA TYPHIMURIUM, Strain/Indicator: TA1535, Metabolic Activation: RAT, LIVER, S-9, AROCLOR 1254, Method: STANDARD PLATE) “active; positive”; (Test System: AMES SALMONELLA TYPHIMURIUM, Strain/Indicator: TA1537, Metabolic Activation: RAT, LIVER, S-9, AROCLOR 1254, Method: STANDARD PLATE) “active; positive”.
